“And” between values parts separate entries of the source, which are not always exact repeats. Equal entries are not always repeated.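 Five concentrations, 48 hours, 96-well plates. Here, GI50 denotes the concentration required for 50% inhibition of growth. TGI is the concentration that stops growth completely.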 *1 amine or outer side, *2 acyl side, *3 side chain or, on linkers, in order; H or OH if unused. Where a SMILES comes first, the peptide text is derived from it. Bridges are numbered along the chain shown (N, C = ends). Roman numbers before positions name the chains, in order. X23 = CCCCCCCCCCCCCCC(=O)NC(CCCCN[*:2])C(=O)CN1CCCC1C(=O)[*:1]
Key:
Assay in all cases: NCI-60 cell line screen, 48 h
U251 CNS = test system: U251 CNS
HCC-2998 colon = test system: HCC-2998 colon
HL-60(TB) leukemia = test system: HL-60(TB) leukemia
UO-31 renal = test system: UO-31 renal
A498 renal = test system: A498 renal
OVCAR-4 ovarian = test system: OVCAR-4 ovarian
NCI-H460 lung = test system: NCI-H460 lung
NCI-H522 lung = test system: NCI-H522 lung
HS 578T breast = test system: HS 578T breast
NCI/ADR-RES ovarian = test system: NCI/ADR-RES ovarian

Row | Compound | TGI (U251 CNS) | TGI (HCC-2998 colon) | TGI (HL-60(TB) leukemia) | TGI (UO-31 renal) | TGI (A498 renal) | TGI (OVCAR-4 ovarian) | TGI (NCI-H460 lung) | TGI (NCI-H522 lung) | TGI (HS 578T breast) | TGI (NCI/ADR-RES ovarian) | GI50 (NCI-H522 lung) | GI50 (U251 CNS) | GI50 (HL-60(TB) leukemia) | GI50 (UO-31 renal) | GI50 (A498 renal) | GI50 (OVCAR-4 ovarian) | GI50 (NCI-H460 lung) | GI50 (HCC-2998 colon) | GI50 (HS 578T breast) | GI50 (NCI/ADR-RES ovarian)
1 | O=C1NC2(NC(=O)C1=O)Nc1ccccc1S2 | > 82.5 µM | > 100 µM | > 64.8 µM | > 95.4 µM | > 100 µM | > 100 µM | > 100 µM | 50 µM |  |  |  |  |  |  |  |  |  |  |  | 
2 | O=CN(O)CC(=O)O.[Ni] | > 100 µM | > 100 µM | > 100 µM | > 100 µM | > 100 µM | > 100 µM | > 100 µM | > 100 µM | > 100 µM | > 100 µM | > 100 µM |  |  |  |  |  |  |  |  | 
3 | COc1cccc2c1C(=O)c1c(O)c3c(c(O)c1C2=O)C[C@@](O)(C(C)=O)C[C@@H]3OC1CC(N(C)C)C(O)C(C)O1 (stereo not given in full) |  | 0.27 µM and 0.205 µM |  |  |  | 0.52 µM and 0.977 µM |  |  | 0.0011 µM | 1.87 µM | 0.036 µM and 0.021 µM | 0.0451 µM | 0.0402 µM | 0.0561 µM | 0.139 µM and 0.0466 µM | < 0.0164 µM | 0.00786 µM |  |  | 
4 | Nc1nccc2c1ncn2C1C=C(CO)C(O)C1O (stereo not given) | > 1000 µM | > 1000 µM | > 1000 µM |  |  | > 1000 µM | > 1000 µM | > 1000 µM |  |  | > 1000 µM | 1.61 µM | 0.337 µM |  |  | > 1000 µM | 0.578 µM | 3.28 µM |  | 
5 | CC(=O)C1=C(C)N(c2ccc(C)cc2)C2(O)C=CC(=O)C3=C(O)c4ccccc4C(=O)C312 (stereo not given) | 69.6 µM | 42.2 µM | > 100 µM | 34.8 µM | 30.8 µM | 36 µM | > 100 µM | 32.5 µM | > 100 µM | > 100 µM |  |  |  |  |  |  |  |  |  | 
6 | OCCSCc1cc(Cl)cc(Cl)c1O | > 100 µM | > 100 µM |  | > 100 µM | > 100 µM | > 100 µM | > 100 µM | > 100 µM | > 100 µM | > 100 µM |  |  |  |  |  |  |  |  |  | 
7 | NS(=O)(=O)c1ccc(N=Nc2ccc(O)c(O)c2)cc1 | 72.9 µM | 41.3 µM | 86.9 µM | 26.4 µM | > 100 µM | 29.1 µM | 58.9 µM | 3.1 µM | 67.3 µM | 73.2 µM |  |  |  |  |  |  |  |  |  | 
8 | CCCCCCCCCCCCCCC(=O)NC(CCCCNC(=O)C1CCCN1C(=O)C(CCCCN)NC(=O)C(CCCCN)NC(=O)C(CCCCN)NC(=O)C(CCCNC(=N)N)NC(=O)C(CCCCN)NC(=O)C(N)C(C)C)C(=O)CN1CCCC1C(=O)NCC(=O)NC(Cc1ccccc1)C(=O)N1CCCC1C(=O)NC(CO)C(=O)NC(Cc1ccc(O)cc1)C(=O)NC(CCCCN)C(=O)NC(CC(C)C)C(=O)NC(CCCNC(=N)N)C(=O)N1CCCC1C(=O)NCC(N)=O (stereo not given) (I: GFPSYKLRPG-NH2 / II: H-VKRKKKP; linker I:N-II:C via X23; configuration not given here) |  | 8.59 µM | 94.8 µM | 77.1 µM | > 100 µM | 97.1 µM | 49.9 µM | 66.3 µM | > 100 µM | 52.9 µM | 21.8 µM |  | 22.5 µM | 24.7 µM | 40.5 µM | 28.7 µM | 14.6 µM | 2.34 µM | 41.1 µM | 19.6 µM
9 | CC1C(O)[C@@]2(OC[C@@]34C(=O)CC5(O)[C@H](CCC6Cc7nc8c(nc7C[C@]65C)CC5CC[C@@H]6C7=C[C@H]9O[C@@]%10(O[C@@](C)(CO)C[C@@H]%10O)C(C)[C@@]9(O)[C@]7(C)[C@@H](O)CC6[C@]5(C)C8)C3=CC[C@H]4C2C)OC1(C)C (stereo not given in full) | 0.101 µM | > 3.55 µM | 0.536 µM | 0.134 µM | 0.00105 µM | > 3.55 µM | 0.0937 µM | 0.083 µM |  | > 3.55 µM |  |  |  |  |  |  |  |  |  | 
10 | O=C1/C(=C/c2ccc3c(c2)OCO3)Sc2scc(-c3ccc(O)c(O)c3)[n+]21 | 37.9 µM | 3.64 µM |  | 6.08 µM |  | 14 µM | 12.8 µM |  | 72.6 µM | 4.48 µM |  |  |  |  |  |  |  |  |  | 
11 | Cc1cc(O)c2cc3c(O)c(O)ccc3cc2c1 | 18.1 µM | 16.4 µM | 4.16 µM | 2.22 µM | 16.1 µM | 5.53 µM | 3.63 µM | 3.98 µM | 6.22 µM | 5.89 µM |  |  |  |  |  |  |  |  |  | 
12 | CCOC(=O)c1c(SC)nc(-c2ccc(Cl)cc2)sc1=N | > 100 µM | 63.9 µM | 78.7 µM | > 100 µM | > 100 µM | > 100 µM | > 100 µM |  | > 100 µM | 73.5 µM |  |  |  |  |  |  |  |  |  | 
13 | O=[N+]([O-])c1ccc(/C=N/n2c(CCc3n[nH]c(=S)n3/N=C/c3ccc([N+](=O)[O-])o3)n[nH]c2=S)o1 | 50 µM | 33 µM | 97.7 µM | 89.9 µM | > 100 µM | 36.7 µM | > 100 µM | 47.3 µM | 62.2 µM | 88.7 µM |  |  |  |  |  |  |  |  |  | 
14 | O=CNNC(=O)CSc1nc2ccc(I)cc2c(=O)n1Cc1ccccc1 | > 100 µM | 81.6 µM | 89.7 µM | 3.93 µM | > 100 µM | > 100 µM | 50.9 µM | 57.4 µM | 87.8 µM | > 100 µM |  |  |  |  |  |  |  |  |  | 
15 | Cc1ccc([S+](c2ccccc2)c2cc(C)ccc2C)cc1 (stereo not given) |  | 28.5 µM | 66.5 µM | > 100 µM | 32.1 µM | > 100 µM | > 100 µM | 28.2 µM |  |  |  |  |  |  |  |  |  |  |  | 
16 | COC1=CCC2=C(CCN(C(=O)C3CC3)C2Cc2ccc(OC)c(O)c2)C1 (stereo not given) | > 100 µM | > 100 µM | 91.7 µM | > 100 µM | > 100 µM | > 100 µM | > 100 µM | 82.4 µM | > 100 µM | 55.4 µM |  |  |  |  |  |  |  |  |  | 
17 | CC(=O)OCC1OC(N2C(=O)CC(N)=Nc3ccccc32)C(OC(C)=O)C(OC(C)=O)C1OC(C)=O (stereo not given) | > 100 µM | > 100 µM | > 100 µM | > 100 µM | > 100 µM | > 100 µM | > 100 µM |  | > 100 µM | > 100 µM |  |  |  |  |  |  |  |  |  | 
18 | O=C1CC(NC2CC(=O)c3c(Br)sc(Br)c32)c2c(Br)sc(Br)c21 (stereo not given) | 3.36 µM | 30.8 µM | 7.65 µM | 4.46 µM | 32.6 µM | > 78.1 µM | 38.2 µM | 3.69 µM | 33.2 µM | > 86.8 µM |  |  |  |  |  |  |  |  |  | 
19 | Oc1ccc(NCc2cc(O)ccc2O)cc1 | 29.5 µM | 30.8 µM | 11.7 µM | 29.4 µM | 60.1 µM | 30.7 µM | 39.1 µM |  | > 100 µM | 51.3 µM |  |  |  |  |  |  |  |  |  | 
20 | CC(C)(C)OC(=O)N1CCCC1C(=O)NCCNc1ccc(NCCNC(=O)C2CCCN2C(=O)OC(C)(C)C)c2c1C(=O)c1ccccc1C2=O (stereo not given) | 44.6 µM | 25.7 µM | > 100 µM |  |  | 51.4 µM |  | 29.7 µM | 69.5 µM | 29.6 µM |  |  |  |  |  |  |  |  |  | 
21 | CN(CCNC(=O)c1cn(C)c2c1ccc1cc(Cl)ccc12)CCNC(=O)c1cn(C)c2c1ccc1cc(Cl)ccc12 | > 100 µM |  | 10.4 µM | 2.94 µM | 14.5 µM | 3.68 µM | > 100 µM | 3.68 µM | 4.25 µM | 3.6 µM |  |  |  |  |  |  |  |  |  | 

Source: PubChem BioAssay (NCI)
